# Data reported in patent US10179116B2, “Methods, compositions, and kits for treating pain and pruritis” (President and Fellows of Harvard College, priority 2006, dated 2019).
# Columns and labels:
# [1] = Sciatic nerve injection, motor function score and placing reflex
# Method: (§1) Motor effects were scored according to a scale of 0 (no effect; normal gait and limb placement), 1 (limb movement but with abnormal limb placement and movement) or 2 (complete loss of limb movement). […] For co-application of QX-314 and capsaicin into the para-sciatic nerve region, we injected QX-314 first, followed 10 minutes later by capsaicin, with the idea that QX-314 would be present extracellularly and ready to enter TRPV1 channels as soon as they were activated.
# (§2) For sciatic nerve injections, animals were first habituated to handling for 10 days. Lidocaine (0.2% or 2%, 100 μL); QX-314 (0.2%, 100 μL) alone; capsaicin (50 μg in 100 μL) alone, or QX-314 followed by capsaicin (10 minutes interval) were injected into the area of sciatic nerve below the hip joint. Mechanical and thermal thresholds were determined using von Frey filaments and radiant heat. […] Walking, climbing, walking on the rod and placing reflex were examined. […] All experiments were done with the experimenter blinded.
# [2] = test system: sodium channel; experiment: Voltage clamp of sodium channel current in small dorsal root ganglion neurons with eugenol (Example 2); format: cell-based
# Method: Co-application of eugenol and QX-314 produces progressive block that can be complete after 7 minutes. Two examples are depicted, which are representative of 10 experiments with similar results.
# We have also shown that eugenol (C10H12O2), an allyl chain-substituted guaiacol, 2-methoxy-4-(2-propenyl)phenol (active ingredient in oil of clove, and a non-pungent agonist of TRPV1 receptors) promotes entry of QX-314 into dorsal root ganglion neurons by activating TRPV1 channels. FIG. 5 depicts voltage clamp recordings of sodium channel current in small dorsal root ganglion neurons. […] Co-application of eugenol and QX-314 produces progressive block that can be complete after 7 minutes. Two examples are depicted, which are representative of 10 experiments with similar results. […] Thus, these experiments indicate that eugenol promotes entry of QX-314 into dorsal root ganglion neurons by activating TRPV1 channels.
# [3] = Intraplantar injection, mechanical threshold for paw withdrawal (von Frey hairs); settings: QX-314 10 μL of 2%, capsaicin 10 μg/10 μL (15 and 30 minutes), or together (15 minutes)
# Method: (§4) We next examined if the combination of capsaicin and QX-314 can reduce pain behavior in vivo.
# (§5) For intraplantar injections, rats were first habituated to handling and tests performed with the experimenter blind to the treatment. Intraplantar injections of vehicle (20% ethanol, 5% Tween 20 in saline, 10 μL) capsaicin (1 μg/μL), QX-314 (2%) or mixture of capsaicin and QX-314 into the left hindpaw were made and mechanical and thermal sensitivities determined using von Frey hairs and radiant heat respectively.
# [4] = Sciatic nerve injection, thermal (radiant heat) response latency; format: in vivo, rat; settings: QX-314 0.2%, 100 μL, capsaicin 0.5 μg/μL, 100 μL (for 30 min)
# Method: as §1, §2
# [5] = test system: voltage-dependent sodium channels; experiment: Whole-cell voltage clamp of sodium current in small capsaicin-sensitive DRG neurons; format: cell-based, rat; settings: n=25
# Method: We recorded current through voltage-dependent sodium channels using whole-cell voltage clamp recordings from adult rat DRG neurons. To select for nociceptors, we recorded from small (24±5 μm; n=25) neurons and tested the neurons for the expression of TRPV1 receptors by a short (1-sec) application of 1 μM capsaicin. In 25/25 of small neurons tested, capsaicin produced a prolonged (10±3 sec) inward current (FIG. 1A, upper panel), consistent with the neurons being nociceptors. Sodium currents were elicited by depolarizing steps from a holding potential of −70 mV.
# (§3) Dorsal root ganglia from 6-8 week old Sprague-Dawley rats were removed and placed into […] containing 1% penicillin—streptomycin (Sigma), then treated for 90 minutes with 5 mg/ml collagenase, 1 mg/ml Dispase II (Roche, Indianapolis, Ind.) and for 7 minutes with 0.25% trypsin, followed by addition of 2.5% trypsin inhibitor. Cells were triturated in the presence of […] (50 U), centrifuged through 15% BSA (Sigma), resuspended in 1 ml Neurobasal medium (Sigma), 10 μM AraC, NGF (50 ng/ml) and GDNF (2 ng/ml) and plated onto poly-lysine (500 μg/ml) and laminin (5 mg/ml) coated 35 mm tissue culture dishes (Becton Dickinson) at 8000-9000 per well. Cultures were incubated at 37° C., 5% carbon dioxide. Recordings were made within 48 hours after plating. […]
# [6] = test system: voltage-dependent sodium channels; experiment: Whole-cell voltage clamp of sodium current in large capsaicin-insensitive DRG neurons; format: cell-based, rat; settings: 10-minute application, n=10
# From the text: To test whether the ability of co-applied capsaicin and QX-314 to inhibit sodium current is selective for cells that express TRPV1 receptors, we also recorded from large DRG neurons (soma diameter >40 μm) (FIG. 1A, right). […] As for small diameter neurons, QX-314 applied alone had little or no effect on sodium current (current increased by 8±4% after a 10-minute application, n=10). Unlike small diameter neurons, capsaicin had no effect on sodium current in large diameter neurons (average increase by 3±2% after a 10-minute application, n=10).
# as §3
# [7] = Sciatic nerve injection, mechanical threshold (von Frey filaments); format: in vivo, rat; settings: QX-314 0.2%, 100 μL, capsaicin 0.5 μg/μL, 100 μL (for 30 min), or QX-314 then capsaicin, stiffest hair 57 g
# Method: as §1, §2
# [8] = Intraplantar injection, thermal (radiant heat) response latency; format: in vivo, rat; settings: QX-314 at 30 min, capsaicin at 15 and 30 min, together at 2 hours, heat applied for 25 seconds
# Method: Similar effects were seen examining sensitivity to a standardized noxious radiant heat stimulus. […] This effect remained for 4 hours after the injection (FIG. 3B).
# [9] = test system: small diameter DRG neurons; experiment: Current clamp, action potential generation in small DRG neurons; format: cell-based, rat; settings: QX-314 5 mM, capsaicin 1 μM, alone or co-applied
# Method: We also examined the effect of co-applied QX-314 and capsaicin in current clamp using physiological internal and external solutions.
# Current clamp recordings were made using the fast current clamp mode of the Axopatch 200A amplifier Pipette solution was 135 mM K gluconate; 2 mM MgCl2; 6 mM KCl; 10 mM HEPES; 5 mM Mg ATP; 0.5 mM Li2GTP; (pH=7.4 with KOH). External solution was 145 mM NaCl; 5 mM KCl; 1 mM MgCl2; 2 mM CaCl210 mM HEPES; 10 mM glucose; (pH adjusted to 7.4 with NaOH). Membrane potential was corrected for a liquid junction potential of −15 mV.
# Command protocols were generated and data digitized using a Digidata 1200 A/D interface with pCLAMP 8.2 software (Axon Instruments, Union City, Calif.). Voltage-clamp current records were low pass filtered at 2 kHz and current clamp recordings at 10 kHz (−3 dB, 4 pole Bessel filter).
# QX-314 (5 mM), capsaicin (1 μM or 500 nM), or their combination was applied using custom-designed multibarrel fast drug delivery system placed about 200-250 μm from the neuron. Solution exchange was complete in less than a second.
# [10] = Intraplantar injection, spontaneous flinching; settings: first 5 min after intraplantar injection
# Method: as §4, §5
# [11] = test system: TRPV1 receptors; experiment: Capsaicin-evoked inward current in large DRG neurons; format: cell-based, rat; settings: soma diameter >40 μm; 10 of 10
# Method: Dorsal root ganglia from 6-8 week old Sprague-Dawley rats were removed and placed into Dulbecco's Minimum Essential Medium containing 1% penicillin—streptomycin (Sigma), then treated for 90 minutes with 5 mg/ml collagenase, 1 mg/ml Dispase II (Roche, Indianapolis, Ind.) and for 7 minutes with 0.25% trypsin, followed by addition of 2.5% trypsin inhibitor. Cells were triturated in the presence of DNAase I inhibitor (50 U), centrifuged through 15% BSA (Sigma), resuspended in 1 ml Neurobasal medium (Sigma), 10 μM AraC, NGF (50 ng/ml) and GDNF (2 ng/ml) and plated onto poly-lysine (500 μg/ml) and laminin (5 mg/ml) coated 35 mm tissue culture dishes (Becton Dickinson) at 8000-9000 per well. Cultures were incubated at 37° C., 5% carbon dioxide. Recordings were made within 48 hours after plating. Average size of small neurons chosen as likely nociceptors was 23±6 μm (n=50) and that of large neurons was 48±8 μm (n=10).
# (§6) Whole-cell voltage-clamp or current-clamp recordings were made using an Axopatch 200A amplifier (Axon Instruments, Union City, Calif.) and patch pipettes with resistances of 1-2 MΩ. […]
# [12] = target: T1, TRPV1 receptors (Rattus norvegicus, UniProt O35433); experiment: Capsaicin-evoked inward current in small DRG neurons (test for TRPV1 expression); format: cell-based; settings: 1-sec application of 1 μM capsaicin
# T1 construct: Dorsal root ganglia from 6-8 week old Sprague-Dawley rats were removed; endogenous in cells; host or cells: primary cultured DRG neurons from 6-8 week old Sprague-Dawley rats
# T1 sequence (O35433 whole entry): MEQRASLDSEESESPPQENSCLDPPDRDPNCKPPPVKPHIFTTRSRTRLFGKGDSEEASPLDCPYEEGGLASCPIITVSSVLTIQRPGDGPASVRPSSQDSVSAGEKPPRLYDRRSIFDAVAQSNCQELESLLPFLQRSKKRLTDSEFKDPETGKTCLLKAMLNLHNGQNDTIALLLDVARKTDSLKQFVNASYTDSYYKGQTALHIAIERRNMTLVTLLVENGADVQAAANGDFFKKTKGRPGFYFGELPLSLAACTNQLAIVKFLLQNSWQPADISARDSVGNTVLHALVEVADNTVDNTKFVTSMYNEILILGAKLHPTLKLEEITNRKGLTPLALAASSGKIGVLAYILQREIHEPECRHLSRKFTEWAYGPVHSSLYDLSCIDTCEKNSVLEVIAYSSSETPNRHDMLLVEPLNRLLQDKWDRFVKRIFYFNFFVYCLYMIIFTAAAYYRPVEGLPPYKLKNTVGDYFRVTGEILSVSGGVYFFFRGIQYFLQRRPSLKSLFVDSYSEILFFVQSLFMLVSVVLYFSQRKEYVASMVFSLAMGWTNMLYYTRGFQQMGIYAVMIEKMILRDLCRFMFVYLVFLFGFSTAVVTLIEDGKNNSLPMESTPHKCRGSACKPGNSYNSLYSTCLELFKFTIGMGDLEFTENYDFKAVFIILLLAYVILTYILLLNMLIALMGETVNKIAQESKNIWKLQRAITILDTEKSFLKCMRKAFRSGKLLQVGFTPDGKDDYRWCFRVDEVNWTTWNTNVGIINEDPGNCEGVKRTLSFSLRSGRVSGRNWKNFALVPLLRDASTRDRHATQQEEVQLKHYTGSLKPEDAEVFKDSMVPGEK
# Method: We recorded current through voltage-dependent sodium channels using whole-cell voltage clamp recordings from adult rat DRG neurons. To select for nociceptors, we recorded from small (24±5 μm; n=25) neurons and tested the neurons for the expression of TRPV1 receptors by a short (1-sec) application of 1 μM capsaicin. […] Sodium currents were elicited by depolarizing steps from a holding potential of −70 mV.
# Dorsal root ganglia from 6-8 week old Sprague-Dawley rats were removed and placed into Dulbecco's Minimum Essential Medium containing 1% penicillin—streptomycin (Sigma), then treated for 90 minutes with 5 mg/ml collagenase, 1 mg/ml Dispase II (Roche, Indianapolis, Ind.) and for 7 minutes with 0.25% trypsin, followed by addition of 2.5% trypsin inhibitor. Cells were triturated in the presence of DNAase I inhibitor (50 U), centrifuged through 15% BSA (Sigma), resuspended in 1 ml Neurobasal medium (Sigma), 10 μM AraC, NGF (50 ng/ml) and GDNF (2 ng/ml) and plated onto poly-lysine (500 μg/ml) and laminin (5 mg/ml) coated 35 mm tissue culture dishes (Becton Dickinson) at 8000-9000 per well. Cultures were incubated at 37° C., 5% carbon dioxide. Recordings were made within 48 hours after plating.
# as §6
# [13] = test system: sodium current; experiment: Sodium current with TRPA agonist mustard oil and QX-314 (Example 3); format: cell-based; settings: MO alone, 50 μM
# Method: MO alone reduces sodium current by 20-30% and reaches a plateau after approximately 3 minutes.
smiles,measurement,setting,value
CCN(CC)CC(=O)Nc1c(C)cccc1C [lidocaine],duration of complete loss of placing reflex,"[1]; rat, in vivo",at least 30 minutes
same,effect on motor function,"[1]; rat, in vivo",complete paralysis of the lower limb
same,effect on placing reflex,"[1]; rat, in vivo",complete loss of the tactile stimulus-evoked placing reflex
same,time of full recovery of sensory and motor deficits,"[1]; rat, in vivo",≤ 45 min
same,mean motor score,"[1]; rat, in vivo, 30 min",1.67±0.2
"C=CCc1ccc(O)c(OC)c1 [eugenol, 2-methoxy-4-(2-propenyl)phenol]",inhibition of sodium current,[2]; eugenol alone,10-20%
CC[N+](CC)(CC)CC(=O)Nc1c(C)cccc1C [QX-314],effect on mechanical threshold for withdrawal response,[3],no significant effect
same,effect of external QX-314 alone on sodium channels,[2]; external application,no effect
same,effect on thermal response latency,[4],no significant effect
same,decrease of sodium current,"[5]; bath application of 5 mM QX-314 alone, 5-minute application",3±0.5%
same,increase of sodium current,[6]; QX-314 alone,8±4%
same,effect on mechanical threshold,[7],no significant effect
same,effect on motor function,"[1]; rat, in vivo",no effect on motor function
same,effect on thermal response latency / reaction to noxious radiant heat,[8],transiently reduced the thermal response latency
same,effect on action potential,[9],no effect
COc1cc(CNC(=O)CCCC/C=C/C(C)C)ccc1O [capsaicin],effect on mechanical threshold for withdrawal response,[3],significantly reduced the mechanical threshold
same,effect on thermal response latency,[4],reduced
same,number of flinches,[10],40±6
same,inhibition of sodium current,"[5]; capsaicin alone, 1 μM for 1-10 minutes",31±9%
same,average increase of sodium current,[6]; capsaicin alone,3±2%
same,inward current elicited in large DRG neurons,[11],did not elicit an inward current
same,effect on mechanical threshold,[7],reduced
same,mean motor score,"[1]; capsaicin alone 0.5 μg/μL, 100 μL, within 30 min after injection, scale 0-2",0.7±0.2
same,animals with sustained flexion of the injected limb,[1]; sciatic injection,4 out of the 6
same,effect on placing reflex,[1]; sciatic injection,unchanged
same,effect on thermal response latency / reaction to noxious radiant heat,[8],reduced as expected the thermal response latency
same,effect on action potential,[9],reduced the action potential amplitude
same,small neurons in which capsaicin produced inward current,[12],25/25
same,duration of prolonged inward current,[12]; small neurons,10 ± 3 s
C=CCN=C=S [MO],reduction of sodium current,[13],20-30%
same,time to plateau of sodium current reduction,[13],approximately 3 minutes
